From patent publication US8609645B2, “Pharmaceutical formulation” (Intervet Inc., priority 2004, dated 2013)

Tests used:
[1] = cited from earlier work
[2] = cited from earlier work; remark: listed apart in the source
fungi = experiment: Antifungal activity compared with traditional veterinary antifungal compounds; settings: fold versus clotrimazole, miconazole, nystatin
Excerpt: The antifungal drug preferably is posaconazole, a drug with 10-400× the antifungal activity of traditional antifungal compounds used in veterinary medicine such as clotrimazole, miconazole, nystatin. It will be the first use of a triazole antifungal in veterinary medicine. The combination for this proposed otic product is new. The product requires only one application per day. In summary, the justification for use of the centralized procedure is: • Novel antibiotic in an otic preparation with none of the ototoxicity of the aminoglycosides often used in such products; • Novel, corticosteroid, with a better safety profile when compared other corticosteroids used in otic preparations; • Potent triazole anti-fungal drug; • Novel combination of the three drugs described above; • Single daily application.

| Compound | solubility in acetone ([1]; acetone) | solubility in chloroform ([1]; chloroform) | solubility in ethanol ([1]; ethanol) | solubility in isopropanol ([1]; isopropanol) | solubility in methanol ([1]; methanol) | solubility in tetrahydrofuran ([1]; tetrahydrofuran) | solubility in water ([1]; water) | partition coefficient between octanol and water [2] | antifungal activity relative to traditional antifungal compounds (fungi) |
| --- | --- | --- | --- | --- | --- | --- | --- | --- | --- |
| C[C@@H]1C[C@H]2[C@@H]3CCC4=CC(=O)C=C[C@]4(C)[C@@]3(Cl)[C@@H](O)C[C@]2(C)[C@@]1(OC(=O)c1ccco1)C(=O)CCl [Mometasone Furoate, 9,21-Dichloro-11(beta),17-dihydroxy-16(alpha)-methylpregna-1,4-diene-3,20-dione 17-(2 Furoate)] | soluble | soluble | slightly soluble | slightly soluble | slightly soluble | freely soluble | practically insoluble | greater than 5000 | – |
| CC[C@@H]([C@H](C)O)n1ncn(-c2ccc(N3CCN(c4ccc(OC[C@@H]5CO[C@@](Cn6cncn6)(c6ccc(F)cc6F)C5)cc4)CC3)cc2)c1=O [posaconazole] | – | – | – | – | – | – | – | – | 10-400 × |
